Results published in patent US12280052B2, “Compositions and methods for the treatment of adenomyosis and rectovaginal endometriosis” (ObsEva S.A., priority 2018, dated 2025).

Experiments:
human GnRH receptor = target: T1, human GnRH receptor (Homo sapiens, UniProt P30968); assay: affinity for human GnRH receptor; type: binding; settings: kind of constant not stated
T1 sequence (P30968 1-328): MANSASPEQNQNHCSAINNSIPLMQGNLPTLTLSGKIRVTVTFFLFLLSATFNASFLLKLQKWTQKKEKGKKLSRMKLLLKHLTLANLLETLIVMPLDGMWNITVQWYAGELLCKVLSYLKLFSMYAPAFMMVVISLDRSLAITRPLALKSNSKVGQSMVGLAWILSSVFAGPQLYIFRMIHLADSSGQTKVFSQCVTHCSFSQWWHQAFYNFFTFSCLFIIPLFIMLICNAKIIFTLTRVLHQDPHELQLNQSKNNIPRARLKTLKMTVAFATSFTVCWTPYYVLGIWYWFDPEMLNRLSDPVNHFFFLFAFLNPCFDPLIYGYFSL

[1] = test system: human female patients suffering from adenomyosis; assay: open-label Phase II clinical trial of compound (VI) in adenomyosis, representative patient; type: in vivo; settings: for mB&B score: composite score 0-15, baseline 6.0 (Severe); for mB&B score / Change from baseline in EHP-30 score for control and powerlessness / Change from baseline in EHP-30 score for emotional well-being / Change from baseline in EHP-30 score for pain / Change from baseline in EHP-30 score for self-image / Change from baseline in EHP-30 score for social support / Change from baseline in global pelvic pain by NRS / Change from baseline in mB&B score / Change from baseline in uterine volume by MRI / Change from baseline in uterine volume by TVUS / Uterus height by TVUS / Uterus depth by TVUS / Uterus length by TVUS / mB&B score, severity class / EHP-30 Score: Pain (Questions 1-11 of EHP-30) / EHP-30 Score: Social Support (Questions 24-27 of EHP-30) / EHP-30 Score: Self-Image (Questions 28-30 of EHP-30) / EHP-30 Score: Emotional Well-being (Questions 18-23 of EHP-30) / EHP-30 Score: Control and Powerlessness (Questions 12-17 of EHP-30) / Global pelvic pain by numerical rating scale (NRS) / Patient Global Impression of Change since Baseline (PGIC) / Uterus volume by transvaginal ultrasound (TVUS) / Uterus volume by MRI: representative patient; for Uterus height by TVUS: baseline 5.6 cm; for Uterus depth by TVUS: baseline 6.5 cm; for Uterus length by TVUS: baseline 6.7 cm; for mB&B score, severity class: baseline Severe; for EHP-30 Score: Pain (Questions 1-11 of EHP-30): scale 0 (best) to 100 (worst health status), baseline 63.6; for EHP-30 Score: Social Support (Questions 24-27 of EHP-30) / EHP-30 Score: Self-Image (Questions 28-30 of EHP-30) / EHP-30 Score: Emotional Well-being (Questions 18-23 of EHP-30) / EHP-30 Score: Control and Powerlessness (Questions 12-17 of EHP-30): scale 0 (best) to 100 (worst); for EHP-30 Score: Social Support (Questions 24-27 of EHP-30): baseline 43.8; for EHP-30 Score: Self-Image (Questions 28-30 of EHP-30): baseline 50.0; for EHP-30 Score: Emotional Well-being (Questions 18-23 of EHP-30): baseline 66.7; for EHP-30 Score: Control and Powerlessness (Questions 12-17 of EHP-30): baseline 70.8; for Global pelvic pain by numerical rating scale (NRS): scale 0 (no pain) to 10 (worst pain imaginable), baseline 7; for Patient Global Impression of Change since Baseline (PGIC): scale 1 (Very much improved) to 7 (very much worse); for Uterus volume by transvaginal ultrasound (TVUS): volume = l × h × d × 0.523, baseline 128 cm^3; for Uterus volume by MRI: baseline 198
Description: This example describes the results of an open-label, Phase II clinical trial examining the safety and efficacy of the GnRH antagonist, compound (VI) (3-[2-fluoro-5-(2,3-difluoro-6-methoxybenzyloxy)4-methoxyphenyl]-2,4-dioxo-1,2,3,4-tetrahydrothieno [3,4d]pyrimidine-5-carboxylic acid), for treating human female patients suffering from adenomyosis. The study began with a 4-week patient screening period, followed by two consecutive 12-week treatment periods. During the first 12-week treatment period, patients were administered compound (VI) in a single daily dose of 200 mg. During the second 12-week treatment period, patients were administered compound (VI) in a single daily dose of 100 mg. Patients then entered a post-treatment follow-up period during which the effects of compound (VI) were further assessed.
The total duration of this study (from the screening visit to the end-of-study visit) was 40 weeks per subject. The study began with a 4-week screening period evaluating the symptoms of uterine adenomyosis and assessing the volume of each patient's adenomyosis-affected uterus by way of MRI. During this period, the patients received no study drug.
At the start of menstruation, the patients were administered 200 mg of compound (VI), once daily, in the form of the corresponding choline salt. The administration continued over the course of a 12-weel treatment period, referred to as the “initiation phase,” so as to maximize the effect of the treatment. After the first 12-week treatment period, the therapeutic effect of the GnRH antagonist was maintained by administering 100 mg of compound (VI), once daily, over the course of a second 12-week treatment period. This second treatment period was referred to as the “maintenance phase.”
At the end of the maintenance phase (at week 24), the patients entered a 12-week follow-up period without any active treatment.
The primary efficacy endpoint of this study was a change, from baseline to week 24, in volume of the adenomyosis-affected uterus, as measured by MRI. Secondary endpoints under investigation in this study were as follows: • Change from baseline to weeks 12 and 36 in volume of the uterus with adenomyosis measured by MRI • Change from baseline to weeks 12, 24 and 36 in volume of the uterus with adenomyosis measured by TVUS • Change from baseline to weeks 12, 24 and 36 in the largest thickness of the anterior and posterior part of the uterus myometrium (sagittal assessment) • Change from baseline to weeks 12, 24 and 36 in the largest diameter of the junctional zone of the uterine adenomyosis measured by MRI • Presence of blood spots on the MRI images • Change from baseline to weeks 12, 24 and 36 in uterus volume assessed at vaginal examination • Change from baseline to weeks 12, 24 and 36 in uterine tenderness assessed at vaginal examination • Change from baseline to weeks 12, 24 and 36 in dysmenorrhea, pelvic pain and dyspareunia according to the mB&B scale • Change from baseline to weeks 4, 8, 12, 16, 20, 24 and 36 for global pelvic pain assessed over the preceding 4-week period using a Numerical Rating Scale (NRS) with a monthly recall • Change from baseline to weeks 4, 8, 12, 16, 20, 24, 28, 32 and 36 in the mean monthly dyspareunia score defined as the mean of available daily dyspareunia scores over the preceding 4-week period assessed on the Verbal Rating Scale (VRS) dyspareunia scale and on a NRS • Change from baseline to weeks 4, 8, 12, 16, 20 and 24 fin the mean monthly dyschezia score defined as the mean of weekly dyschezia scores over the preceding 4-week period using a NRS • No uterine bleeding (or spotting only), during the 4-week period preceding weeks 4, 8, 12, 16, 20 and 24 using a simplified bleeding scale • Time to amenorrhea • Change from baseline to weeks 12, 24 and 36 in the Endometriosis Health Profile questionnaire (EHP-30) • Patient Global Impression of Change (PGIC) score at weeks 12, 24 and 36 Data Analysis and Statistics […]

[2] = week 24 (100 mg once daily after 12 weeks of 200 mg)

## COc1cc(F)c(-n2c(=O)[nH]c3csc(C(=O)O)c3c2=O)cc1OCc1c(OC)ccc(F)c1F [Compound (VI), 3-[2-fluoro-5-(2,3-difluoro-6-methoxybenzyloxy)4-methoxyphenyl]-2,4-dioxo-1,2,3,4-tetrahydrothieno [3,4d]pyrimidine-5-carboxylic acid]
Human GnRH receptor
  affinity for human GnRH receptor: 27.4 nM
[1]; 24 weeks of treatment, 200 mg then 100 mg once daily
  uterine volume, conclusion in words: sustained reduction in uterine volume
[1]; 24 weeks of treatment, 200 mg then 100 mg once daily, various metrics
  adenomyosis-associated pain, conclusion in words: substantial reduction in adenomyosis-associated pain
[1]; week 12 (200 mg once daily)
  mB&B score: 2.0
  Change from baseline in EHP-30 score for control and powerlessness: −70.8
  Change from baseline in EHP-30 score for emotional well-being: −66.7
  Change from baseline in EHP-30 score for pain: −63.6
  Change from baseline in EHP-30 score for self-image: −50.0
  Change from baseline in EHP-30 score for social support: −43.8
  Change from baseline in global pelvic pain by NRS: −7
  Change from baseline in mB&B score: −4
  Change from baseline in uterine volume by MRI: −114 cm^3
  Change from baseline in uterine volume by TVUS: −79 cm^3
  Uterus height by TVUS: 4.1 cm
  Uterus depth by TVUS: 5.0 cm
  Uterus length by TVUS: 4.5 cm
  mB&B score, severity class: Mild (Mild (1-2))
  EHP-30 Score: Pain (Questions 1-11 of EHP-30): 0.0
  EHP-30 Score: Social Support (Questions 24-27 of EHP-30): 0
  EHP-30 Score: Self-Image (Questions 28-30 of EHP-30): 0
  EHP-30 Score: Emotional Well-being (Questions 18-23 of EHP-30): 0
  EHP-30 Score: Control and Powerlessness (Questions 12-17 of EHP-30): 0
  Global pelvic pain by numerical rating scale (NRS): 0
  Patient Global Impression of Change since Baseline (PGIC): 1—Very
  Uterus volume by transvaginal ultrasound (TVUS): 48 cm^3
[1]; week 12 (end of initiation phase, 200 mg once daily as choline salt)
  Uterus volume by MRI: 84 cm^3
[1]; [2]
  mB&B score: 2.0
  Change from baseline in EHP-30 score for control and powerlessness: −70.8
  Change from baseline in EHP-30 score for emotional well-being: −66.7
  Change from baseline in EHP-30 score for pain: −56.8
  Change from baseline in EHP-30 score for self-image: −50.0
  Change from baseline in EHP-30 score for social support: −43.8
  Change from baseline in global pelvic pain by NRS: −6
  Change from baseline in mB&B score: −4
  Change from baseline in uterine volume by MRI: −123 cm^3
  Change from baseline in uterine volume by TVUS: −79 cm^3
  Uterus height by TVUS: 4.0 cm
  Uterus depth by TVUS: 5.0 cm
  Uterus length by TVUS: 4.6 cm
  mB&B score, severity class: Mild (Mild (1-2))
  EHP-30 Score: Pain (Questions 1-11 of EHP-30): 6.8
  EHP-30 Score: Social Support (Questions 24-27 of EHP-30): 0
  EHP-30 Score: Self-Image (Questions 28-30 of EHP-30): 0
  EHP-30 Score: Emotional Well-being (Questions 18-23 of EHP-30): 0
  EHP-30 Score: Control and Powerlessness (Questions 12-17 of EHP-30): 0
  Global pelvic pain by numerical rating scale (NRS): 1
  Patient Global Impression of Change since Baseline (PGIC): 1—Very
  Uterus volume by transvaginal ultrasound (TVUS): 48 cm^3
[1]; week 24 (end of maintenance phase, 100 mg once daily after 12 weeks of 200 mg)
  Uterus volume by MRI: 75 cm^3
